Source: the Kinase Knowledgebase extract (Sharma et al. 2016)

target: PIK3CG (human) (UniProt P48736); test: Inhibition of PIK3CG Kinase Activity
Sequence (P48736 whole entry, looked up): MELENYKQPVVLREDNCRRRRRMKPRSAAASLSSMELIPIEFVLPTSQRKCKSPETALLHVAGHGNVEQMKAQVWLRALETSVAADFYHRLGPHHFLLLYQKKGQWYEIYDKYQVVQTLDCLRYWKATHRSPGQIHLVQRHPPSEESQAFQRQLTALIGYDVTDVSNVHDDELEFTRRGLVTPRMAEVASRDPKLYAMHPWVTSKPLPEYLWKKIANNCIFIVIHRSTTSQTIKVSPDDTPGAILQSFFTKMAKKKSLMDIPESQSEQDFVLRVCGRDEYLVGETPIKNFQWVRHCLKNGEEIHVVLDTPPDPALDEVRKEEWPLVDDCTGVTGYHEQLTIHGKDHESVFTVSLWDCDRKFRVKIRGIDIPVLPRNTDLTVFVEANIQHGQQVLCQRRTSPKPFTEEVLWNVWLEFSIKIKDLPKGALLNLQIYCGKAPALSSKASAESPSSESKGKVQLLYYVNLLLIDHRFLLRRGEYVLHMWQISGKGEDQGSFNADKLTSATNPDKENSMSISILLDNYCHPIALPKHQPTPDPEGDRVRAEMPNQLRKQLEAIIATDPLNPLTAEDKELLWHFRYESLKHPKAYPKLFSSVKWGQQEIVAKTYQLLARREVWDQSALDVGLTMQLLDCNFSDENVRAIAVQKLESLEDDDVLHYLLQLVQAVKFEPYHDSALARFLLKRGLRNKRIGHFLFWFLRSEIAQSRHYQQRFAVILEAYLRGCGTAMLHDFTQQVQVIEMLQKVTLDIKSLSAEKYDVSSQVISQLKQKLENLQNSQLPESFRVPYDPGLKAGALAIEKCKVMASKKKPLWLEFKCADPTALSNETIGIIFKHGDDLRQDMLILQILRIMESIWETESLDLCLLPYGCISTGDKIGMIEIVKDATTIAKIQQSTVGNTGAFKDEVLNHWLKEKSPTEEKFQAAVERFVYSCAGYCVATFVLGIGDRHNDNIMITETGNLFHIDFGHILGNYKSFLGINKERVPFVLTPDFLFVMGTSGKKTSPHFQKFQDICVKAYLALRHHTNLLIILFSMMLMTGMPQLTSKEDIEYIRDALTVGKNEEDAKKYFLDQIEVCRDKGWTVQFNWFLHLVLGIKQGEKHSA

SMILES	Ki [nM]
Cc1cc(-c2cncc(OC(F)F)c2)nc2c1C(=O)N(c1cc[nH]n1)C2	< 100
Cc1cc(-c2cnc(C)c(OCC(F)F)c2)nc2c1C(=O)N(c1cnn(CC(F)F)c1)C2(C)C	< 100
COc1cc(-c2ccc3c(n2)CN(c2ccon2)C3=O)cnc1OC	< 100
COc1cc(-c2ccc3c(c2)CN(c2cscn2)C3=O)cnc1OC	100 to 490
Cc1cc(-c2cnc(F)c(O)c2)nc2c1C(=O)N(c1cnn(CC(F)(F)F)c1)C2(C)C	< 100
COc1cccc(-c2cc(C)c3c(n2)CN(c2cnn(C(C)(C)C#N)c2)C3=O)c1	< 100
COc1cncc(-c2cc(C)c3c(n2)C(C)N(c2ccn([C@@H]4CCOC4)n2)C3=O)c1 (some centres undefined)	< 100
CCNC(=O)Cn1cc(N2Cc3nc(-c4cnc(OC)c(OC)c4)ccc3C2=O)cn1	< 100
COc1cc(-c2ccc3c(n2)[C@@H](C)N(c2ccn(CC(C)(C)O)n2)C3=O)cnc1OC	< 100
COc1cc(-c2cc(C)c3c(n2)CN(c2cnccn2)C3=O)cnc1OC	< 100
Cc1cc(-c2cncc(OC(F)F)c2)nc2c1C(=O)N(c1cn[nH]c1)[C@H]2C	< 100
COc1cc(-c2ccc3c(n2)C(C)N(c2ccn(CC(C)(C)F)n2)C3=O)cnc1OC (centres undefined)	< 100
COc1cc(-c2ccc3c(c2)CN(c2nncs2)C3=O)cnc1OC	100 to 490
COc1cc(-c2ccc3c(n2)CN(c2cccs2)C3=O)cnc1OC	< 100
CCO[C@]1(C)c2nc(-c3cnc(OC)c(OC)c3)cc(C)c2C(=O)N1c1cnn(CC(F)(F)F)c1	< 100
COc1cc(-c2ccc3c(n2)CN(c2ccc(OC(CO)C(F)(F)F)nc2)C3=O)cnc1OC (centres undefined)	< 100
COc1cc(-c2cc(C)c3c(n2)CN(c2csc(C)c2)C3=O)cnc1OC	< 100
COc1cc(-c2ccc3c(n2)CN(c2cnn(Cc4ccccn4)c2)C3=O)cnc1OC	< 100
CCOc1cc(-c2cc(C)c3c(c2)CN(c2cnn(CC#N)c2)C3=O)cnc1OCC	< 100
Cc1cc(-c2cncc(C(=O)NC(C)C)c2)nc2c1C(=O)N(c1cnn(CC(F)(F)F)c1)C2C (centres undefined)	< 100
COc1cc(-c2ccc3c(n2)CN(c2cnn(CC(O)CF)c2)C3=O)cnc1OC (centres undefined)	< 100
COc1cc(-c2cc(C)c3c(n2)C(O[C@H]2CCOC2)N(c2cnn(CC(F)(F)F)c2)C3=O)cnc1OC (some centres undefined)	< 100
CCn1ccc(N2Cc3nc(-c4cnc(OC)c(OCC(F)F)c4)cc(C)c3C2=O)n1	< 100

SMILES	Ki [nM]
CCc1cc(N2Cc3nc(-c4cnc(OC)c(OC)c4)cc(C)c3C2=O)n[nH]1	< 100
Cc1cc(-c2cncc(OC(F)F)c2)nc2c1C(=O)N(c1cnn(C)c1)C2	< 100
COc1cc(-c2cc(C)c3c(n2)[C@@]2(CCCO2)N(c2cnn(CC(F)(F)F)c2)C3=O)cnc1OC(C)C	< 100
COc1ncc(-c2ccc3c(n2)C(C)N(c2cnn(CC(F)(F)F)c2)C3=O)cc1O (centres undefined)	< 100
COc1cc(-c2cc(C)c3c(n2)CN(c2cnc(C(C)(C)O)c(F)c2)C3=O)cnc1OC	< 100
COCn1cc(N2Cc3nc(-c4cnc(OC)c(OC)c4)cc(C)c3C2=O)cn1	< 100
Cc1cc(-c2cncc(OCC(F)(F)F)c2)nc2c1C(=O)N(c1cn(CC(F)(F)F)cn1)C2	< 100
COc1cc(-c2ccc3c(n2)CN(c2cnn(Cc4cc(C)on4)c2)C3=O)cnc1OC	< 100
Cc1cc(-c2cncc(OCC(F)F)c2)nc2c1C(=O)N(c1cnn(CC(F)(F)F)c1)[C@@H]2C	< 100
COc1ncc(-c2cc(C)c3c(n2)CN(c2cnn(C)c2)C3=O)cc1OC(F)F	< 100
CCOc1ncc(-c2cc(C)c3c(n2)C(C)(O)N(c2cnn(CC(F)(F)F)c2)C3=O)cc1OC (centres undefined)	< 100
COc1cncc(-c2cc(C)c3c(n2)CN(c2ccn([C@H]4CCOC4)n2)C3=O)c1	< 100
COc1cc(-c2cc(C)c3c(n2)CN(c2ccc(OCC(F)F)nc2)C3=O)cnc1OC	< 100
COc1cc(-c2ccc3c(n2)CN(c2ccn(C[C@H](C)O)n2)C3=O)cnc1OC	< 100
CCOCCOc1cc(-c2cc(C)c3c(n2)CN(c2cnn(CC(F)(F)F)c2)C3=O)cnc1OC	< 100
COc1ccc(-c2cc(C)c3c(n2)CN(c2cnn(C(C)(C)C#N)c2)C3=O)cc1OC	< 100
COc1cc(-c2cc(C)c3c(n2)[C@@]2(CCCO2)N(c2cnn(CC(F)(F)F)c2)C3=O)cnc1OC	< 100
CCn1cc(N2Cc3nc(-c4cnc(OC)c(OC(C)C)c4)cc(C)c3C2=O)cn1	< 100
COc1cncc(-c2cc(C)c3c(n2)CN(c2ccn(CC(C)(C)O)n2)C3=O)c1	< 100
Cc1cc(-c2cncc(S(=O)(=O)N(C)C)c2)nc2c1C(=O)N(c1ccn([C@H]3CCOC3)n1)C2	< 100
COc1cncc(-c2cc(C)c3c(n2)CN(c2cnn(CC(F)(F)F)c2)C3=O)c1	< 100
CCNC(=O)c1cncc(-c2cc(C)c3c(n2)C(C)(C)N(c2cnn(CC(F)(F)F)c2)C3=O)c1	< 100
COc1cc(-c2ccc3c(n2)CN(c2ccc(C)s2)C3=O)cnc1OC	< 100

SMILES	Ki [nM]
COc1cc(-c2ccc3c(n2)CN(c2ccc(N4CCC(OC)CC4)nc2)C3=O)cnc1OC	< 100
CCc1ncc(-c2cc(C)c3c(n2)C(C)(C)N(c2cnn(CC(F)(F)F)c2)C3=O)cc1OC	< 100
COc1cc(-c2ccc3c(n2)[C@H](C)N(c2ccn(CC(C)(C)F)n2)C3=O)cnc1OC	< 100
COc1cc(-c2ccc3c(n2)CN(c2cnn(CCN4CCCCC4)c2)C3=O)cnc1OC	100 to 490
COc1cc(-c2cc(C)c3c(n2)CN(c2ccc(OCCC(F)(F)F)nc2)C3=O)cnc1OC	< 100
CCn1cc(N2C(=O)c3ccc(-c4cnc(OC)c(OC(F)F)c4)nc3[C@H]2C)cn1	< 100
COc1ncc(-c2cc(C)c3c(n2)CN(c2cnn(CC(F)(F)F)c2)C3=O)cc1O	< 100
COc1ncc(-c2cc(C)c3c(n2)C(C)(C)N(c2cnn(CC(F)(F)F)c2)C3=O)cc1C(=O)NC(C)CO (centres undefined)	< 100
COCc1cc(N2Cc3nc(-c4cnc(OC)c(OC)c4)ccc3C2=O)n[nH]1	< 100
COc1cc(-c2ccc3c(n2)CN(c2cnn(Cc4ccc(CO)cc4)c2)C3=O)cnc1OC	< 100
Cc1cc(-c2cncc(C(=O)NC3CC3)c2)nc2c1C(=O)N(c1cnn(CC(F)(F)F)c1)C2	< 100
Cc1cc(-c2cncc(OC(F)F)c2)nc2c1C(=O)N(c1cnn(C)c1)C2C (centres undefined)	< 100
COc1cc(N2Cc3nc(-c4cnc(OC)c(OC)c4)ccc3C2=O)n[nH]1	< 100
COc1cc(-c2ccc3c(n2)C(C)N(c2csc(SC)n2)C3=O)cnc1OC (centres undefined)	< 100
COc1cncc(-c2cc(C)c3c(n2)[C@@H](OC)N(c2cnn(CC(F)(F)F)c2)C3=O)c1	< 100
COc1cc(-c2cc(C)c3c(n2)C2(CCOCC2)N(c2cnn(CC(F)(F)F)c2)C3=O)cnc1OC(C)C	< 100
CCNC(=O)c1cc(-c2cc(C)c3c(n2)C(C)(C)N(c2cnn(CC(F)(F)F)c2)C3=O)cnc1OC	< 100
COc1cc(-c2ccc3c(n2)[C@@H](OC)N(c2cnn(CC(F)(F)F)c2)C3=O)cnc1OC	< 100
COc1cc(-c2cc(C)c3c(n2)CN(c2cncnc2)C3=O)cnc1OC	< 100
CCOc1cc(-c2cc(C)c3c(n2)C(OCCOC)N(c2cnn(CC(F)(F)F)c2)C3=O)cnc1OC (centres undefined)	< 100
COc1cncc(-c2cc(C)c3c(n2)C2(CC=CC2)N(c2cnn(CC(F)(F)F)c2)C3=O)c1	< 100
COc1cc(-c2ccc3c(n2)CN(c2cncc(CO)c2)C3=O)cnc1OC	< 100
COCCOCCOc1ncc(-c2cc(C)c3c(c2)CN(c2cnn(CC(F)(F)F)c2)C3=O)cc1OC	100 to 490
